# Data: US9968636B2, “Peritoneal dialysis fluid comprising a GSK-3 inhibitor” (ZYTOPROTEC GMBH, priority 2011, dated 2018)
# “Also recorded” adds a separate entry of the source.
# Assays:
# [1] = system: heat shock factor-1 (HSF-1); test: HSF-1 activity by Luciferase assay (heat shock element reporter); format: cell-based, human; settings: 10 mM LiCl; control cells, glucose-based low pH high GDP and low pH icodextrin-based PD fluids; 30 min exposure, 6 h recovery; FIG. 4
# Method: PDF exposure model: confluent cultures on 12-well plates were exposed for the indicated times (30 min or 1 h) to the PD fluid solution or kept in parallel in control medium. […], whereas for measurements of LDH and HSP-72, p-GSK-3β Western blot analysis, cells were allowed to recover by incubation with normal culture medium containing 10% FBS for 16 h.
# To determine the specific binding of the heat shock factor-1 (HSF-1), a commercially available Luciferase Reporter Vector (LR0038, Panomics, Italy) containing the heat shock element [5′[…]3′] as well as an empty control vector were transfected into the MeT-5a cells. 24 h prior to transfection, MC were seeded onto 96-well cell culture plates and allowed to reach approximately 80-90% confluence on day of transfection. Before transfection per well 0.15 μl Fugene6 (Roche) transfection reagent and 0.1 μl HSE reporter vector or control vector were each diluted with 5 μl of normal growth medium without FCS and incubated for 5 min. The solutions were mixed incubated for 30 min. Of this mix 10 μl were added to each well incubated for 24 h at 5% CO2 and 37° C. in a humidified atmosphere. […] The luciferase reagent (E1500, Promega) was added using an automatic pipette in 3 s intervals and the yielded signal was measured after 2 min using a luminometer plate reader (Flx800, BioTek).
# [2] = system: human Met-5a cell line (mesothelial cells); test: Cell viability by neutral red uptake after PD fluid exposure; settings: 10 mM LiCl; low pH glucose-based or icodextrin-based PD fluids; 1 h exposure, 16 h recovery; FIG. 3
# Method: (§1) The human Met-5a cell line was purchased from American Type Culture Collection (ATCC, Rockville, Md.). All cells were cultured in M199 culture medium supplemented with L-glutamine (0.1 g/L), penicillin (100 U/mL), streptomycin (100 μg/mL), 10% fetal bovine serum (FBS) and propagated at 37° C. in a humidified air containing 5% CO2 incubator. Standard chemicals were purchased from Sigma-Aldrich (St. Louis, Mo., USA) unless otherwise stated. Falcon™ tissue culture plastics (Becton Dickinson, Franklin Lakes, N.J., USA) were used for all cell culture procedures.
# (§2) PDF exposure model: confluent cultures on 12-well plates were exposed for the indicated times (30 min or 1 h) to the PD fluid solution or kept in parallel in control medium. For HSF-1 activity assay, cells were harvested and lysed immediately after exposure times, whereas for measurements of LDH and HSP-72, p-GSK-3β Western blot analysis, cells were allowed to recover by incubation with normal culture medium containing 10% FBS for 16 h.
# To assess cell viability by neutral red uptake, cells were seeded out to 96-well plates and exposed to different treatment protocols as described before. Neutral red uptake was measured using a standard reagent (Sigma-Aldrich, St. Louis, Mo., USA) according to the manufacturer's protocol.
# [3] = system: human Met-5a cell line (mesothelial cells); test: LDH release into the supernatant after PD fluid exposure; format: cell-based; settings: for LDH levels: icodextrin-based fluid
# Method: as §1, §2
# For LDH analyses, 200 μL aliquots of supernatants were removed after the described experimental setup and kept on −20° C. until analyzed within 48 h. Measurements were performed in duplicates with Sigma TOX-7 LDH Kit according to the manufacturer's instructions. LDH efflux was normalized for protein content.
# [4] = system: Heat shock protein-72 (HSP-72); test: HSP-72 expression by Western blot; format: cell-based, human
# Method: as §2
# For western blotting, protein content is determined by the Bradford assay (Biorad, Vienna, Austria) and equal amounts of protein samples (2 μg/lane) are separated by standard SDS-PAGE using a Pharmacia Multiphore II unit. Size-fractionated proteins are then transferred to PVDF membranes by semi-dry transfer in a Pharmacia Multiphore II Novablot unit. Membranes are blocked in 5% dry milk in TBS-Tween (10 mM Tris, 150 mM NaCl, 0.05% Tween 20, pH 7.4). Membranes are incubated with the respective primary antibody (HSP-72, p-GSK-3β) for 16 h. Detection is accomplished by incubation with secondary, peroxidase-coupled antibodies (anti-mouse or anti-rabbit IgG, both Dako Cytomation, Calif., USA) and enhanced chemiluminescence (ECL) using the ECL western blotting analysis system (Renaissance, NEN-Life Science Products, Boston, Mass., USA).
# mesothelial cells = test: Light microscopy and vital-dead (live-dead) staining of mesothelial cells; format: cell-based, human; settings: LiCl, low pH glucose-based or icodextrin-based PD fluids, data not shown
# Method: as §2
smiles,measurement,setting,value
"[Cl-].[Li+] [LiCl, Lithium-chloride]",HSF-1 transcriptional activity,[1],significantly increased
same,number of viable cells (neutral red uptake),[2],improved cell viability; also recorded: increased number of viable cells
same,LDH release (cell injury),"[3]; 10 mM LiCl added, all PD fluids observed, 1 h exposure, 16 h recovery, vs no LiCl, FIG. 2",decreased LDH release; also recorded: attenuated LDH release
same,protection (LDH release),"[3]; 10 mM LiCl, incubation with low pH glucose-based and icodextrin-based solutions, FIG. 2",most prominent protection
same,LDH levels,"[3]; 1 mM LiCl, FIG. 6",did not change significantly
same,LDH levels,"[3]; 2 mM LiCl, FIG. 6",already decreased
same,LDH levels,"[3]; 5 mM LiCl, FIG. 6",the decrease was even more significant
same,LDH levels,"[3]; 10 mM LiCl, FIG. 6",the decrease was even more significant
same,LDH release,"[3]; low pH glucose-based (PDF) fluid, 10 mM LiCl, FIG. 6",significantly reduced
same,release of LDH into the supernatant,"[3]; low pH glucose-based (PDF) fluid, LiCl 1 mM to 5 mM, FIG. 6",did not alter
same,level of HSP-72,"[4]; 10 mM LiCl, each incubation setting (glucose-based or icodextrin-based PD fluid, 30 min or 1 h) vs respective untreated cells, FIG. 5",significantly increased
same,HSP-72 expression,"[4]; glucose-based low pH PDF, LiCl 1, 2, 5, 10 mM vs untreated cells, 30 min exposure, 16 h recovery, FIG. 8",increased only after administration of either 2 mM or 10 mM LiCl
same,HSP-72 protein expression,"[4]; icodextrin-based PD fluid, LiCl 1, 2, 5, 10 mM, 30 min exposure, 16 h recovery, FIG. 8",all the applied LiCl doses increased
same,cell structure,mesothelial cells,preserved cell structure
same,rate of dead cells,mesothelial cells; live-dead staining,reduced cell death rate; also recorded: reduced rate of dead cells
